From US20240002870A1, “RAPID TRANSFORMATION OF MONOCOT LEAF EXPLANTS” (PIONEER HI-BRED INTERNATIONAL, INC., priority 2020, published 2024)
Values joined by “and” are separate entries in the source; they are usually repeats but may differ in a detail not shown here. Equal values may be shown once.

Tests used:
[1] = tested on: maize plants with edited or wild-type ALS2 alleles; test: Chlorsulfuron resistance test of plants with edited and wild-type ALS2 alleles (spray, germination on medium); assay type: in vivo; settings: for plants fourteen days after germination on media: 100 ppm; for phenotype three weeks after treatment: spray 50, 100 (1x), 200, 400 mg/liter
[2] = tested on: Pioneer inbred PHH5E leaf segments; test: Auxin (2,4-D) pre-treatment of seedlings prior to Agrobacterium infection (Table 29); assay type: cell-based, maize; settings: for T-DNA Delivery: PHP71539 plus PHP97334
[3] = tested on: inbred PHH5E seedling-derived leaf segments; test: Seedling pre-treatment with ancymidol before leaf transformation; assay type: cell-based, maize; settings: PHP97334
[4] = tested on: Japonica rice (Oryza sativa var Kitaake), teff (Eragrostis tef), pearl millet (Pennisetum glaucum) seedlings; test: Ancymidol pretreatment during seed germination and seedling growth of other cereals; assay type: cell-based; settings: 1 mg/l in 900 medium; all three cereal crops
Method: Both […] ancymidol pretreatments during seed germination and seedling growth were tested (using medium 900 plus 1 mg/l or 2 mg/l ancymidol) on three cereals Japonica rice (Oryza sativa var Kitaake), teff (Eragrostis tef), and pearl millet (Pennisetum glaucum). […] When seed from all three species were germinated and grown on 900 medium plus 2 mg/l ancymodiol, the seedlings only grew to a height of 1-2 cm after 14 days and although the leaf-whorl region was thicker (due to wider leaves), processing these small seedlings to produce leaf segments followed by transformation was more difficult.
In contrast, for all three cereal crops, seed germination and seedling growth on 900 plus 1 mg/l ancymidol produced an intermediate growth rate, with thicker stems and wider leaves than the control (with no ancymidol). […] Thus, compared to maize and sorghum in which 2 mg/l ancymidol pretreatment during seedling growth is optimal for leaf transformation, a lower concentration of 1 mg/l ancymidol produced optimal results in rice, tef, and pearl millet.

Q: For `COc1nc(C)nc(NC(=O)NS(=O)(=O)c2ccccc2Cl)n1` [chlorsulfuron], which “plants fourteen days after germination on media” value ([1]; plants with edited alleles) is on record?
A: normal height and a well-developed root system

Q: And the “plants fourteen days after germination on media” value ([1]; plants with wild-type alleles)?
A: short and do not develop roots

Q: What about the “phenotype three weeks after treatment” value ([1]; T1 plants with only wild-type alleles) of the same molecule?
A: strong signs of senescence

Q: And the “phenotype three weeks after treatment” value ([1]; four-week old T1 plants with an edited ALS2 allele)?
A: normal phenotype

Q: With `O=C(O)COc1ccc(Cl)cc1Cl` [2,4-D, 2,4-dichlorophenoxyacetic acid] as the molecule, how does the “No. SC Clean (single-copy T-DNA integration with no extraneous Agrobacterium sequences)” value (from here on “No. SC Clean”) ([2]; 3 mg/l 2,4-D for 24 hours) read?
A: 18

Q: What about the “No. SC Clean” value ([2]; 10 mg/l 2,4-D for 24 hours) of the same molecule?
A: 40

Q: And the “T-DNA Delivery” value ([2]; 10 mg/l 2,4-D for 24 hours before infection)?
A: 4 (90-100%)

Q: And the “effect on leaf transformation (Txn %, single-copy T-DNA integrations) compared to the control treatment” value ([2]; 10 mg/l, 24 hours)?
A: improved leaf transformation

Q: What about the “No. SC Clean” value ([2]; 30 mg/l 2,4-D for 24 hours) of the same molecule?
A: 19

Q: What about the “T-DNA Delivery” value ([2]; 30 mg/l 2,4-D for 24 hours before infection) of the same molecule?
A: 4 (90-100%)

Q: What does the source list for `COc1ccc(C(O)(c2cncnc2)C2CC2)cc1` (centres unmarked) [Ancymidol, ancymidol]?
A: Txn % ([3]; 2 mg/l): 236% and 358% and 303%; Txn % ([3]; 2 mg/l, listed as ancymidol): 302%; Txn % ([3]; 2 mg/l, total over three experiments): 302%; Txn % ([3]; 4 mg/l): 234% and 252% and 253%; Txn % ([3]; 4 mg/l, listed as ancymidol): 246%; Txn % ([3]; 4 mg/l, total over three experiments): 246%; transgenic T0 plantlets compared to the other two treatments [4]: produced the highest number of transgenic TO plantlets
